Assay results from patent US20120141586A1, “THROMBIN RECEPTOR ANTAGONIST AND CLOPIDOGREL FIXED DOSE TABLET” (priority 2009, published 2012).
“Also recorded” adds a separate entry of the source.

Tests used:
thrombin receptor = molecular target: T1, thrombin receptor (Homo sapiens, UniProt P25116); settings: cited from earlier work
T1 sequence (P25116 22-425): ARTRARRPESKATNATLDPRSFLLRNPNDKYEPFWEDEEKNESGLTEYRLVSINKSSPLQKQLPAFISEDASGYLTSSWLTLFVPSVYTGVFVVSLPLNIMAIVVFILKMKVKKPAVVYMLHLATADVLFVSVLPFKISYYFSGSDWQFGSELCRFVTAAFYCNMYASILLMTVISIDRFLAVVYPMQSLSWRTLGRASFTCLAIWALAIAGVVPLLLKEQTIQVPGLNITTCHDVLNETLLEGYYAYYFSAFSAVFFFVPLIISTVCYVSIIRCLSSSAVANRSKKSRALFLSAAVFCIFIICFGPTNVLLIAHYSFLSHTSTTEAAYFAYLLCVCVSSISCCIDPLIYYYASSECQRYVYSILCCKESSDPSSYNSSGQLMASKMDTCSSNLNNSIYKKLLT

[1] = Compatibility studies between clopidogrel premix and 530348 bisulfate / free base
From the text: b. […] Clopidogrel is known to degrade under acidic and alkaline conditions. […] To test this hypothesis, the above studies were repeated in the presence of 530348 free base.

[2] = forced degradation data generated at Dr. Reddy's Lab; cited from earlier work

| SMILES | Selectivity (thrombin receptor) | Thrombin receptor antagonist activity (potency) (thrombin receptor) | Extent of clopidogrel degradation ([1]; bisulfate salt compared to 530348 free base (FIG. 2)) | Clopidogrel degradation ([1]; in the presence of 530348 bisulfate) | Susceptibility of clopidogrel to degradation [2] |
| --- | --- | --- | --- | --- | --- |
| CCOC(=O)N[C@@H]1CC[C@@H]2[C@@H](C1)C[C@H]1C(=O)O[C@H](C)[C@H]1[C@H]2/C=C/c1ccc(-c2cccc(F)c2)cn1 [SCH 530348, ethyl[(1R,3aR,4aR,6R,8aR,9S,9aS)-9-[(E)-2-[5-(3-fluorophenyl)-2-pyridinyl]ethenyl]dodecahydro-1-methyl-3-oxonaphtho[2,3-c]furan-6-yl]carbamate] | good | good |  |  |  |
| COC(=O)[C@H](c1ccccc1Cl)N1CCc2sccc2C1 [clopidogrel] |  |  | greater in the presence of the bisulfate salt | significant degradation; also recorded: degrades | susceptible to degradation upon exposure to heat, humidity, and oxygen |
| CCOC(=O)N[C@@H]1CC[C@@H]2[C@@H](C1)C[C@H]1C(=O)O[C@H](C)[C@H]1[C@H]2/C=C/c1ccc(-c2cccc(F)c2)cn1 [SCH 530348 bisulfate] | good | good |  |  |  |
